According to patent US6194465A, “Benzamide therapeutics for the treatment of inflammatory bowel disease” (priority 1999, dated 2001):
Entries after “also recorded” stand apart in the source; their conditions may differ.

Tests used:
[1] = tested on: human brain cell aggregates; assay: TNF-α induced apoptosis in human brain cell aggregates; type: cell-based; conditions: compound 1 hour prior to TNF-α, 48 h, read-out: lowest concentration shown to protect against TNF-α induced apoptosis
Procedure: This test is used to evaluate the potential of Compound A to prevent TNF-α induced apoptosis.
Compound A was evaluated in an in vitro model of TNF-α induced toxicity (see Pulliam et al. J. Neurosci. Res. 21:521-530 (1998)). In this model, human brain cell aggregates from fetal tissue were treated with TNF-α which caused an apoptotic cell death. Brain cell aggregates prepared from 1 brain were incubated for 10-12 days before experimentation. Aggregates were weighed out (100 mg/flask) and aliquoted into 10 mL flasks. TNF-α was used at a concentration of 1 ng. Compound A was added 1 hour prior to the TNF-α. Experiments included untreated brain aggregates, TNF-α-treated brain aggregates, TNF-α-+test compound treated aggregates and test compound treated aggregates. After TNF-α was added, aggregates were incubated for an additional 48 h. After this time, brain aggregates were centrifuged for 5 min at 500 rpm. The supernatant was removed and the pellet was lysed for determination of programmed cell death. (Boeringer Mannheim Cell Death Kit ELISA).

[2] = Plasma concentration time course after oral administration; type: in vivo, rats
[3] = tested on: adjuvant induced arthritis; assay: Rat adjuvant induced arthritis model of chronic inflammation; type: in vivo; conditions: Compound A 100 mg/kg po or dexamethasone 0.1 mg/kg, daily 7 days, vs adjuvant
Procedure: Confirmation of the anti-inflammatory activity of Compound A was sought in another related biological test-the rat adjuvant induced arthritis model of chronic inflammation. This model was selected because almost all of the anti-IBD agents also show efficacy in standard arthritis models. In this model Compound A was tested at 100 mg/kg, po in a 1 % methyl cellulose suspension. On day 0 all animals received an injection of either Mycobacterium butyricum (100μL, 20 mg/mL in mineral oil) or mineral oil in the base of the tail. 14 days after this injection, rat paws were measured and all the rats were randomized into 3 treatment groups of 8. A control adjuvant group (group without further treatment), a group to be treated with dexamethasone (steroid reference) and a group to treated with Compound A. Rats received Compound A 100 mg/kg, po, or dexamethasone 0.1 mg/kg, op, daily until day 21 (7 days dosing). On day 21 rats were sacrificed. Paw measurements were taken after 5 and 7 days treatment.

[4] = tested on: Myeloperoxidase (MPO) activity; assay: MPO activity of colon tissue in TNBS model (IV dosing); type: in vivo, Male Sprague-Dawley rats
Procedure: (§1) Male Sprague-Dawley rats (200-250 g) were housed in standard cages (2 per cage) and fed rat chow and tap water ad libitum. After an overnight fast, rats were brought into the laboratory and randomized into treatment groups. Colitis was induced by intrarectal administration of 0.5 ml of TNBS solution (50 mg/kg in 50% ethanol) using a 1 ml syringe attached to a 5 cm polyethylene catheter. Control animals received saline (0.9%) or a 1 % methyl cellulose suspension at identical time points.
Myeloperoxidase ("MPO") activity is measured as an index of the intensity of the inflammatory response. In order to determine the MPO activity, a blind study of 300 mg samples of colon tissue were analyzed. This assay uses the spectrophotometric method of Castro et al.
(§2) For PO (oral) dosing, Compound A was administered by oral gavage 30 mg/kg as a 1% carboxy methyl cellulose ("CMC") suspension 1 hour prior to the administration of TNBS. Control rats were given CMC only. For IV (intravenous) dosing, Compound A was administered 30 mg/kg by tail vein injection in a 75% PEG/25 % water solution 1 hour prior to administration of TNBS. Control rats were given an injection of 75% PEG/25 % water only. Six rats were dosed for each route of administration.
MPO activity measurements were performed only for samples from the IV administration.

DSS-induced colitis = assay: Dose-response in the Mouse Dextran Sulfate (DSS) model; type: in vivo
Procedure: To determine the dose-response relationship of Compound A in the DSS Mouse Model, the following procedure was used.
Experimental conditions and statistical analyses were the same as the Mouse Dextran Sulfate IBD Model, except four groups of mice (n=8-10/group) were used. Animals were dosed orally with either Compound A (3, 10 or 30 mg/kg) or vehicle alone. In addition, the following procedure was introduced to evaluate the histology in the animals:
5-6 slices/segment with 15-18 total pieces/colon
Score for extent of damage: 0=1-25% involvement, 1=26-50% involvement,
0=intact crypt, 1=loss of 1/3 crypt, 2=loss of 2/3 crypt, 3=loss of entire crypt with surface epithelium intact, 4=loss of entire crypt and erosion of surface epithelium
0=normal, 1=focal inflammatory cell infiltrate including PMNs, 2=inflammatory cell infiltration, gland dropout and crypt abscess, 3=mucosal ulceration
Single, evaluator (qualified pathologist) blinded to the treatment conditions.

TNBS-induced colitis = assay: TNBS model of IBD, Compound A given before TNBS (morphology, tissue weight); type: in vivo, Male Sprague-Dawley rats
Source text: The trinitrobenzene sulphonic acid ("TNBS") model is one of the standard IBD models used in IBD discovery research, and has been extensively evaluated in rodents. A single enema of TNBS induces a prolonged colonic inflammatory response (up to several weeks) that is transmural and is accompanied by oxidative damage as evidenced by an increase in myeloperoxidase ("MPO") activity. Furthermore, the inflammation is characterized by discrete areas of acute necrosis, inflammation and muscle thickening. Agents with anti-inflammatory effects in patients with IBD show efficacy in this model. Although the mechanism by which TNBS induces an inflammatory response is unknown, it is thought to have an immunological basis.
as §1
Three days after TNBS administration, the rats were sacrificed and the colons excised and opened longitudinally.
The weights of each 5 cm colonic segment were also recorded to assess inflammatory induced edema.
as §2
An additional study was conducted varying the amount of Compound A administered to the rats. Doses of 10 mg/kg, 30mg/kg, and 70 mg/kg were given by oral administration.
A study was run to determine whether or not the effectiveness of Compound A was dependent upon when it was administered relative to the TNBS administration.
Groups of rats (N=11/group) were administered increasing doses of Compound A (0-90 mg/kg-po) 1 hour prior to TNBS enema. In addition to macroscopic assessment, the wet weight of the tissue was also measured as an additional secondary efficacy parameter.

[5] = 0-90 mg/kg po, 1 hour prior to TNBS

lower plasma levels in animals dosed 4 hours before TNBS ([2]; > 6 hours after TNBS, vs dosing 1 hour before): approximately 30%
time after which plasma concentrations begin to decline ([2]; following oral administration): > 7 h
Tmax ([2]; rat, plasma, following oral administration, read-out: time of peak plasma concentration): 3 to 4 h
Structure (SMILES): CC(=O)Nc1ccc(C(=O)NC(C)(C)C)cc1 [Compound A, N-tert-butyl-4-acetamidobenzamide]
minimal effective concentration [1]: 0.01 µM
inhibition of the inflammatory response [3]: significant inhibition of the inflammatory response (p<0.005)
protection from TNBS insult as measured by MPO activity (in words) ([4]; IV): provided protection from the TNBS insult
MPO Activity ([4]; IV treatment, 30 mg/kg, TNBS model): 1.77 ± 0.53 units/mg
protective effect, significance by day (DSS-induced colitis; oral): statistically significant on days 3, 4, 5 and 7
DAI score, protective effect (in words) (DSS-induced colitis; oral, 3, 10 or 30 mg/kg): marked dose-dependent protective effect
DAI score, significance by dose (DSS-induced colitis; oral, 3, 10 or 30 mg/kg): statistically significant at 30 mg/kg
MPO values (in words), dose-response study (DSS-induced colitis; oral, 3, 10 or 30 mg/kg): the protection was not statistically significant
wet weight (in words), dose-response study (DSS-induced colitis; oral, 3, 10 or 30 mg/kg): the protection was not statistically significant
colonic morphological score (in words) (TNBS-induced colitis; [5]): dose-dependent reduction
wet weight of colonic segments (in words) (TNBS-induced colitis; [5]): dose-dependent reduction
protective effects, 10 mg/kg (TNBS-induced colitis; 10 mg/kg oral): minimal protective effects
severity of IBD symptoms / protection from TNBS damage, IV (TNBS-induced colitis; 30 mg/kg IV, 1 hour before TNBS): decreases the severity of IBD symptoms; also recorded: protected from the damage induced by TNBS; also recorded: greater protection seen following IV administration; also recorded: intravenous administration of Compound A also provides protection
protective effects, 30 mg/kg (TNBS-induced colitis; 30 mg/kg oral): increased protective effects
severity of IBD symptoms / protection from TNBS damage, PO (TNBS-induced colitis; 30 mg/kg po, 1 hour before TNBS): decrease the severity of IBD symptoms; also recorded: protected from the damage induced by TNBS
protection, administered 120 mins before TNBS (TNBS-induced colitis; 30 mg/kg po, 120 mins pretreatment): less protective compared to the 60 min pretreatment period
protective effects, 70 mg/kg (TNBS-induced colitis; 70 mg/kg oral): strongest protective effect
protection, administered 1 hour before TNBS (TNBS-induced colitis; 1 hour (60 min) pretreatment): best protection
tissue weight (in words) (TNBS-induced colitis; IV and PO, 30 mg/kg): suggest protection, but not as convincingly as the morphology and MPO activity results
activity in protecting colon tissue, summary (in words) (TNBS-induced colitis; IV or PO): good activity in protecting colon tissue from damage
protection, administered 240 mins before TNBS (TNBS-induced colitis; single dose, 240 mins pretreatment): little protection against morphological changes
